Results taken from ChEMBL document CHEMBL1127835, “Structure-activity relationships of N6-benzyladenosine-5'-uronamides as A3-selective adenosine agonists” (J Med Chem, 1994).

Tests used:
[1] = Ratio of binding affinities for A2 receptor compared to that of A3 receptor
[2] = target: Adenosine A2 receptor (Rattus norvegicus, UniProt P29276+P30543)
Description: Binding affinity for A2-adenosine receptor by the displacement of specific [3H]-CGS- binding in rat striatal membranes was determined

[3] = target: T1, Adenosine receptor A1 (Rattus norvegicus) (UniProt P25099); details: Brain, 10e-5 nM
T1 sequence (whole entry): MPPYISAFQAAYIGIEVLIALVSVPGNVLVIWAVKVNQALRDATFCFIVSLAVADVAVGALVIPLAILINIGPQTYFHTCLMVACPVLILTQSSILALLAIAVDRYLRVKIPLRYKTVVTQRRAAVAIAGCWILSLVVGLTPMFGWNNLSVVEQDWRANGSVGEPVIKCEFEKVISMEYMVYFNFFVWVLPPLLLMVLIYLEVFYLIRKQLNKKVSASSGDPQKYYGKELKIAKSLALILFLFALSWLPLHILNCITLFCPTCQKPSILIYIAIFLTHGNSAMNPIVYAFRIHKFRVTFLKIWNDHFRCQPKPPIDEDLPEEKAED

[4] = target: T2, Adenosine A2 receptor (Rattus norvegicus) (UniProt P29276+P30543); details: Brain, 10e-5 nM
Description: Percentage inhibition against [3H]-CGS- 21680 binding to A1-adenosine receptor in rat brain at 10e-5 nM

[5] = target: T3, Adenosine receptor A3 (Rattus norvegicus, UniProt P28647); assay: biochemical
T3 sequence (P28647 whole entry): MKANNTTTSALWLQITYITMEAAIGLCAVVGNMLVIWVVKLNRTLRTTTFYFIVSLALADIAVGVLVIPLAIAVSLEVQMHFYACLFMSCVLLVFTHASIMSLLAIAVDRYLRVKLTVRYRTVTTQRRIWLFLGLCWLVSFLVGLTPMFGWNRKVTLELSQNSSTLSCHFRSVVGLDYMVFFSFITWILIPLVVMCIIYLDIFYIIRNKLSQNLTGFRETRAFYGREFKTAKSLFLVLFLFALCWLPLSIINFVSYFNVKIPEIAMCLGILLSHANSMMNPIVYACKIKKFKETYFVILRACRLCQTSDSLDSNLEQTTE
Description: Binding affinity for rat A3-adenosine receptor expressed in chinese hamster ovarian cells (assayed by the displacement of specific [125I]-N6-(4-amino-3-iodobenzyl)-adenosine-5''-N-methyluronamide)

[6] = target: T4, Adenosine receptor A1 (Rattus norvegicus, UniProt P25099); assay: biochemical
T4 sequence (P25099 whole entry): T1 sequence (whole entry)
Description: Binding affinity for A1-adenosine receptor by the displacement of specific [3H]-PIA binding in rat brain was determined

[7] = target: T3, Adenosine receptor A3
Description: Binding affinity for recombinant rat A3-adenosine receptor by the displacement of specific [125I]APNEA or [125I]-N6-(4-amino-3-iodobenzyl)-adenosine-5'-N-methyluronamide

[8] = target: T1, Adenosine receptor A1 (Rattus norvegicus); assay: Percentage inhibition against [3H]-PIA binding to A1-adenosine receptor in rat brain at 10e-4 nM; assay type: tissue-based
[9] = target: T2, Adenosine A2 receptor (Rattus norvegicus); assay: Percentage inhibition of [3H]-CGS- 21680 binding to […] receptor in rat brain at 10e-4 nM; assay type: tissue-based
[10] = target: T1, Adenosine receptor A1 (Rattus norvegicus); assay: Percentage inhibition against [3H]PIA binding to A1-adenosine receptor in rat brain at 1xe-4 nM; assay type: tissue-based
[11] = target: T2, Adenosine A2 receptor (Rattus norvegicus); assay: Percentage inhibition against [3H]-CGS- 21680 binding to A2-adenosine receptor in rat brain at 1xe-4 nM; assay type: tissue-based
[12] = target: T1, Adenosine receptor A1 (Rattus norvegicus); assay: Percentage inhibition against [3H]PIA binding to A1-adenosine receptor in rat brain at 10e-5 nM; assay type: tissue-based
[13] = target: T2, Adenosine A2 receptor (Rattus norvegicus); assay: Percentage inhibition of [3H]-CGS- 21680 binding to […] receptor in rat brain at 10e-5 nM; assay type: tissue-based

SMILES	Ratio [1]	Ki [2]	Ki [6]	also measured
CCNC(=O)[C@H]1O[C@@H](n2cnc3c(NCc4ccc(OC)cc4)ncnc32)[C@H](O)[C@@H]1O	55	609 nM		
CCNC(=O)[C@H]1O[C@@H](n2cnc3c(N[C@H](C)c4ccccc4)ncnc32)[C@H](O)[C@@H]1O	14	259 nM		
NCCNC(=O)[C@H]1O[C@@H](n2cnc3c(N)ncnc32)[C@H](O)[C@@H]1O	> 1			inhibition [3]: 0%; inhibition [4]: 12.5%
CCNC(=O)[C@H]1O[C@@H](n2cnc3c(NCc4ccccc4)ncnc32)[C@H](O)[C@@H]1O	14	95 nM		
CCNC(=O)[C@H]1O[C@@H](n2cnc3c(NCc4cccc(OC)c4)ncnc32)[C@H](O)[C@@H]1O	8.8	38 nM		
CNC(=O)[C@H]1O[C@@H](n2cnc3c(NCc4cccc(Br)c4)ncnc32)[C@H](O)[C@@H]1O	34	64 nM		Ki [5]: 1.9 nM
CCNC(=O)[C@H]1O[C@@H](n2cnc3c(NCc4cccc(I)c4)ncnc32)[C@H](O)[C@@H]1O	8.2	7.2 nM		
CNC(=O)[C@H]1OC(n2cnc3c(NCc4cccc(N)c4)ncnc32)[C@H](O)[C@@H]1O (stereo partly specified)	28	794 nM	1000 nM	Ki [5]: 28 nM
O=C(NC1CC1)[C@H]1OC(n2cnc3c(NCc4ccccc4)ncnc32)[C@H](O)[C@@H]1O (stereo partly specified)	0.53	55 nM	112 nM	Ki [7]: 103 nM
NC(=O)[C@H]1O[C@@H](n2cnc3c(NCc4ccccc4)ncnc32)[C@H](O)[C@@H]1O	1.7	423 nM		
CNC(=O)[C@H]1O[C@@H](n2cnc3c(NCc4cccc(Cl)c4)ncnc32)[C@H](O)[C@@H]1O	25	559 nM	916 nM	Ki [7]: 21.9 nM
CCNC(=O)[C@H]1OC(n2cnc3c(=O)[nH]cnc32)[C@H](O)[C@@H]1O (stereo partly specified)				Ki [7]: 5000 nM
CCNC(=O)[C@H]1OC(n2cnc3c(N[C@@H](C)c4ccccc4)ncnc32)[C@H](O)[C@@H]1O (stereo partly specified)	3.3	1650 nM	65 nM	Ki [5]: 494 nM
CNC(=O)[C@H]1O[C@@H](n2cnc3c(O)ncnc32)[C@H](O)[C@@H]1O	> 10			inhibition [8]: 0%; inhibition [9]: 6.2%
CNC(=O)[C@H]1OC(n2cnc3c(NCc4cccc(C(F)(F)F)c4)ncnc32)[C@H](O)[C@@H]1O (stereo partly specified)	19	574 nM	496 nM	Ki [5]: 31 nM
CCNC(=O)[C@H]1O[C@@H](n2cnc3c(NCc4cccc([N+](=O)[O-])c4)ncnc32)[C@H](O)[C@@H]1O	4	35 nM		
CNC(=O)[C@H]1OC(n2cnc3c(NCc4ccc(N)cc4)ncnc32)[C@H](O)[C@@H]1O (stereo partly specified)	110	1590 nM		
CCNC(=O)[C@H]1O[C@@H](n2cnc3c(NCc4cccc(Cl)c4)ncnc32)[C@H](O)[C@@H]1O	17	19 nM		
CCNC(=O)[C@H]1OC(n2cnc3c(O)ncnc32)[C@H](O)[C@@H]1O (stereo partly specified)	> 1			inhibition [8]: 44%; inhibition [9]: 31%
CNC(=O)[C@H]1OC(n2cnc3c(NCc4cccc(S(=O)(=O)O)c4)ncnc32)[C@H](O)[C@@H]1O (stereo partly specified)	6.9	9070 nM	19600 nM	Ki [5]: 1310 nM

SMILES	Ratio [1]	Ki [2]	Ki [6]	also measured
CCNC(=O)[C@H]1O[C@@H](n2cnc3c(N)[n+](Cc4ccccc4[N+](=O)[O-])cnc32)[C@H](O)[C@@H]1[O-]	3.1	83.5 nM	196 nM	Ki [7]: 27 nM
CNC(=O)[C@H]1OC(n2cnc3c(NCc4ccc(S(=O)(=O)O)cc4)ncnc32)[C@H](O)[C@@H]1O (stereo partly specified)	> 100			inhibition [10]: 0%; inhibition [11]: 0%; Ki [5]: 4500 nM
CC(C)(C)OC(=O)NCCNC(=O)[C@H]1O[C@@H](n2cnc3c(N)ncnc32)[C@H](O)[C@@H]1O	> 1			inhibition [12]: 0%; inhibition [13]: 0%
CCNC(=O)[C@H]1O[C@@H](n2cnc3c(NCc4ccc([N+](=O)[O-])cc4)ncnc32)[C@H](O)[C@@H]1O	64			
CCNC(=O)[C@H]1O[C@@H](n2cnc3c(NCc4cccc(F)c4)ncnc32)[C@H](O)[C@@H]1O	3	32 nM		
CCNC(=O)[C@H]1O[C@@H](n2cnc3c(NCc4ccccc4OC)ncnc32)[C@H](O)[C@@H]1O	3	21 nM		
CNC(=O)[C@H]1O[C@@H](n2cnc3c(NCc4cccc(C)c4)ncnc32)[C@H](O)[C@@H]1O	42	415 nM		
CCNC(=O)[C@H]1OC(n2cnc3c(NCc4cccc(Br)c4)ncnc32)[C@H](O)[C@@H]1O (stereo partly specified)			10.9 nM	Ki [5]: 2.8 nM
CNC(=O)[C@H]1OC(n2cnc3c(NCc4ccc(Br)cc4)ncnc32)[C@H](O)[C@@H]1O (stereo partly specified)	200	2460 nM	516 nM	Ki [5]: 12 nM
CCNC(=O)[C@H]1OC(n2cnc3c(N)[n+]([O-])cnc32)[C@H](O)[C@@H]1O (stereo partly specified)	0.22	101 nM	154 nM	Ki [7]: 468 nM
CNC(=O)[C@H]1O[C@@H](n2cnc3c(NCc4ccccc4)ncnc32)[C@H](O)[C@@H]1O	37	597 nM		
CCNC(=O)[C@H]1O[C@@H](n2cnc3c(NCc4ccccc4[N+](=O)[O-])ncnc32)[C@H](O)[C@@H]1O	8.6	24 nM		
NC(=O)[C@H]1OC(n2cnc3c(N)ncnc32)[C@H](O)[C@@H]1O (stereo partly specified)	0.085	120 nM	72.6 nM	Ki [7]: 1410 nM
CNC(=O)[C@H]1OC(n2cnc3c(NCc4cccc([N+](=O)[O-])c4)ncnc32)[C@H](O)[C@@H]1O (stereo partly specified)	23	441 nM	735 nM	Ki [5]: 19 nM
CCNC(=O)[C@H]1O[C@@H](n2cnc3c(N)[n+](Cc4ccc([N+](=O)[O-])cc4)cnc32)[C@H]([O-])[C@@H]1O	3.2	190 nM	341 nM	Ki [7]: 60 nM
CNC(=O)[C@H]1OC(n2cnc3c(NCc4ccc(Cl)cc4)ncnc32)[C@H](O)[C@@H]1O (stereo partly specified)	160	2730 nM	478 nM	Ki [5]: 17 nM
CCNC(=O)[C@H]1O[C@@H](n2cnc3c(NCc4cccc(C)c4)ncnc32)[C@H](O)[C@@H]1O	15	17.7 nM		
CNC(=O)[C@H]1OC(n2cnc3c(NCc4cccc(NC(C)=O)c4)ncnc32)[C@H](O)[C@@H]1O (stereo partly specified)	24	988 nM	2970 nM	Ki [5]: 41.4 nM
CNC(=O)[C@H]1O[C@@H](n2cnc3c(NCc4ccc(N)c(I)c4)ncnc32)[C@H](O)[C@@H]1O		197 nM	18 nM	
